Results: article PMC11996864, “A small-molecule inhibitor of BCL10-MALT1 interaction abrogates progression of diffuse large B cell lymphoma” (The Journal of Clinical Investigation, 2025)
Several values for one entry are separate records, joined by “and”; a condition that tells them apart may be missing. Equal values may be shown once. Values belong to the molecule of their own block, whether it stands above or below them.

How the values were obtained:
TMD8 cells = experiment: cells; design: species or system TMD8 or OCI-Ly3; Inhibition of spontaneous IL-10 secretion from ABC-DLBCL cells, human IL-10 ELISA of supernatants; conditions: Homo sapiens, TMD8, 20 h; IL-10 secretion; read-out: IC50 (µM) IL-10 inhibition
Protocol: Cytokine ELISAs. Cytokines in cell culture supernatants were measured 20-24h after treatment with 0, 0.01, 0.03, 0.1, 0.3, 1, or 3 µM of compounds using the following ELISA kits according to the manufacturer’s instructions: Human IL-2 ELISA (BioLegend Cat# 431804), Human IL-6 ELISA (BioLegend Cat# 430504), and Human IL-10 ELISA (BioLegend Cat# 430604). TMD8 and OCI-Ly3 cells were treated with specific doses of compounds in serum-free media for 20 hours. Jurkat T cells were pretreated with specific doses of compounds for 8 hours in serum-free media, then stimulated with PMA/ionomycin for 16 hours prior to the collection of supernatants. Mouse splenocytes were isolated from spleens of C57/BL6 mice by passing spleens through a 70 micron filter followed by red blood cell lysis using ACK lysing buffer (Quality Biologics, Cat# 118-156-101). […] Supernatant was collected at 24 hours and mouse IL-2 levels were analyzed via ELISA (R&D Systems, Cat# DY402-05). IL-6 and IL-10 are NF-κB–induced cytokines that promote the proliferation and survival of malignant B cells through both autocrine and paracrine mechanisms ([44]), and are negative prognostic factors in ABC-DLBCL ([45], [46]). ABC-DLBCL cell lines spontaneously secrete substantial levels of IL-6 and IL-10, whereas GCB-DLBCL cell lines express only a negligible amount of these cytokines ([24]). […] The IC50 for inhibition of cytokine secretion by each compound in each cell line is reported in Supplemental Table 1.  Figure 4 M1i-124 and M1i-124d1 inhibit MALT1 protease and scaffolding functions, and MALT1-dependent cytokine secretion, in ABC-DLBCL cells. (A and B) Effect of 1 μM compound pretreatment on constitutive RelB cleavage (A) and IκB phosphorylation (B) within TMD8 cells. Representative Western blots are shown along with quantification (mean ± SEM; n = 2). (C) IL6 and IL10 mRNA levels in TMD8 cells treated with 1 μM M1i-124 or M1i-124d1 (mean ± SEM; n = 6). […] Statistical analyses were performed using 1-way ANOVA and Dunnett’s multiple-comparison test. **P < 0.01, ***P < 0.001, ****P < 0.0001.

[1] = tested on: IL-2 secretion from Jurkat T cells; experiment: Secreted IL-2 ELISA after PMA/Iono; format: cell-based, human; conditions: PMA/Iono treated, Suppl Fig. 4A
WT C57BL/6 mice = experiment: Flow cytometry of spleen immune cell subsets after 12 days of treatment; format: in vivo, mouse; conditions: 50 mg/kg, vs vehicle, result in words
Protocol: Long-term in vivo toxicity experiments. WT C57/BL6 (The Jackson Laboratory) male and female mice were treated daily with 50 mg/kg M1i-124 or vehicle control for 28 days. At the time of sacrifice, blood was obtained for complete blood count, alanine transaminase, albumin, and total bilirubin (Abaxis). Livers from control and M1i-124 treated mice were collected for H&E analysis.
Flow cytometry. Splenocytes were isolated from WT mice after 12 days of treatment with 50 mg/kg M1i-124 or vehicle control. After obtaining a single cell suspension using […] filter, cells were stained with viability dye (Tonbo Biosciences Ghost Red 780, Fisher Healthcare, Cat #50-105-2988). After blocking with mouse BD Fc BlockTM (BD Biosciences, Cat# 553141), splenocytes were stained with a panel of antibodies including antibodies from Invitrogen (anti-CD3 APC, Cat# […]
0251-82 and anti-NK1.1 PE-Cyanine 7 Cat#25-5941-82), an antibody from BD Bioscience (anti- […]
and anti-CD4 BV711 Cat# 100557). Samples were run on a 5 laser LSR Fortessa flow cytometer and analyzed with FlowJo software.

OCI-Ly3 cells = experiment: Apoptosis, annexin V/SYTOX Blue flow cytometry; format: cell-based, human
Protocol: Cell proliferation, viability, and apoptosis assays. […]
Annexin V Alexa 488
(ThermoFisher Scientific, Cat# A13201) and SYTOX Blue Dead Cell (ThermoFisher Scientific, Cat# S34857) stains were used to detect apoptosis in DLBCL cells after treatment with 1 µM compounds for 8 days in TMD8 and OCI-Ly1 and for 5 days in OCI-Ly3 cells, then analyzed with flow cytometry. The percentages of cells in early and late apoptosis were combined for quantification. For CellTrace Violet, CellTiter-glo, and Annexin V apoptosis assays, cell were cultured in media with 50% of the usual serum. […]

TMD8 tumor xenografts = experiment: NF-κB target gene mRNA in TMD8 tumor xenografts, qRT-PCR; format: in vivo, mouse
Protocol: Total RNA extraction from the TMD8 tumor xenografts was performed using 80% TRIzol Reagent (Fisher Scientific, Cat# 15596026) and 20% Chloroform for tissue solubilization. After centrifugation, the supernatant was mixed with equal volume of 70% ETOH followed by RNA isolation using the RNeasy Plus Mini
Kit. RNA was transcribed into cDNA using High-Capacity cDNA Reverse Transcription Kit (Applied Biosystems, Cat# 4368814) according to manufacturer’s instructions. RT-PCR was performed using TaqMan Universal PCR Master Mix (Applied Biosystems, Cat# 4304437) and run on a StepOnePlus Real-Time PCR machine (Applied Biosystems). The following probes from ThermoFisher Scientific were used for qRT-PCR: IL2 TaqMan probe Hs00174114, IL6 TaqMan

[2] = 24-hour time point, result in words

- IC50 (TMD8 cells): 0.2 µM
Structure (SMILES): COc1ccc(CNS(=O)(=O)c2ccc(Cc3ccc(S(=O)(=O)NCc4ccc(OC)cc4)cc3)cc2)cc1 [M1i-124d1]

Structure (SMILES): CN1CCCC(CN2c3ccccc3Sc3ccccc32)C1 (stereo not shown) [Mepazine, mepazine, reference compound]
- activity at 5 µM ([1]; Homo sapiens, Jurkat, read-out: IL-2 protein level (% of control)): 29.9%
- IL-2 protein level (% of control) ([1]; 5 uM): 22.8269 % of control and 31.0927 % of control

Structure (SMILES): O=S(=O)(NCc1ccc2c(c1)OCO2)c1ccc(Cc2ccc(S(=O)(=O)NCc3ccc4c(c3)OCO4)cc2)cc1 [M1i-124]
- percentage of total lymphocytes and specific lymphocyte populations within the spleen (WT C57BL/6 mice): no difference
- apoptosis of OCI-Ly3 cells (OCI-Ly3 cells; 1 μM, result in words): selectively induced apoptosis
- Percent Apoptotic cells (OCI-Ly3 cells; OCI-Ly3): 91.3% and 82.7% and 75% and 93.6% and 88.1% and 93.3% and 87.8% and 75.8%
- IRF4 mRNA level in tumors (TMD8 tumor xenografts; [2]): no effect
- NFKBID mRNA level in tumors (TMD8 tumor xenografts; [2]): no effect
- NFKBIZ mRNA level in tumors (TMD8 tumor xenografts; [2]): did reduce
- TNFA mRNA level in tumors (TMD8 tumor xenografts; [2]): did reduce
- IL10 mRNA levels in tumors (TMD8 tumor xenografts; 24 hours after last dose, result in words): not affected
- IL6 mRNA level in tumors (TMD8 tumor xenografts; 24 hours after last dose, vs DMSO, result in words): significant decrease
- Gene expression by RT-PCR (normalized) (TMD8 tumor xenografts; NFKBID): 0.81 and 0.72 and 0.56 and 0.88 and 1.03 and 0.82 and 0.76 and 0.92
